From article PMC12668310, “High‐Throughput Synthesis and Screening of a Cyanimide Library Identifies Selective Inhibitors of ISG15‐Specific Protease mUSP18” (Angewandte Chemie (International Ed. in English), 2025)
Like-named read-outs stand apart in the source and are kept apart here.

Biological target: T1, mUSP18 (Mus musculus, UniProt Q9WTV6)
T1 construct: (46-368); His-tag (N); made in house
T1 sequence (Q9WTV6 46-368): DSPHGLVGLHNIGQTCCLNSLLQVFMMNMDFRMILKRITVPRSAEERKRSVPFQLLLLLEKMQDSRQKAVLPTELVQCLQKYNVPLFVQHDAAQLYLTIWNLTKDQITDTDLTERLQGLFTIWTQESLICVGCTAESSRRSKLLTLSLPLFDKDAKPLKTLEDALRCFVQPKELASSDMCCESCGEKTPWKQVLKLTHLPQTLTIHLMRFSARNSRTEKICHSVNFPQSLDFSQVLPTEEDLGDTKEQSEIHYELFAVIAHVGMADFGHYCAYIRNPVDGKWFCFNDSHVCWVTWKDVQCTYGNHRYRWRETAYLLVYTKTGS
Experiment: High-throughput screening, ISG15ct-RhoMP, single dose 1.25 µM
Type: biochemical, murine
Settings: for inhibition at 1.25 µM: mUSP18 %inhibition; for inhibition of mUSP18 by individual CA's and coupling reagents: screened with and without DIC/HOBt

[1] = carboxylic acid (CA) building block alone, read-out: %inh CA only
[2] = carboxylic acid (CA) with coupling reagents DIC/HOBT, read-out: %inh CA + DIC/HOBT

SMILES | inhibition at 1.25 µM [1] | inhibition at 1.25 µM [2] | inhibition of mUSP18 by individual CA's and coupling reagents
CN1CCC(C(=O)O)CC1 [CA087] | -3.93% | -14.3% | 
O=C(O)c1ccc(COc2ccccc2Br)cc1 [CA207] | -2.79% | 10.7% | 
Cc1nc(-c2c[nH]c(C(=O)O)c2)cs1 [CA245] | 19.9% | 52.7% | could inhibit mUSP18
O=C(O)C1CCN(C(=O)c2ccccn2)CC1 [CA242] | 6.36% | 2.43% | 
CC1CCCC(N2CC(C(=O)O)CC2=O)C1C (centres unmarked) [CA237] | 7.37% | -3.69% | 
O=C(O)C1CCCN1C(=O)Cc1ccccc1 (centres unmarked) [CA228] | 2.77% | 4.1% | 
O=C(O)c1cnoc1-c1cccs1 [CA104] | 12.4% | 34% | 
O=C(O)c1ccc(CNS(=O)(=O)c2ccc(F)c(F)c2F)cc1 [CA235] | 13.6% | 1.22% | 
O=C(O)c1ccc(Cn2cc(Br)cn2)o1 [CA224] | 3.05% | 5.82% | 
O=C1CCC(=O)N(c2ccc(C(=O)O)cc2)N1 [CA209] | -2.74% | 14.4% | 
Cc1nnnn1-c1cc(C(=O)O)cc(C(F)(F)F)c1 [CA171] | 9.55% | 3.27% | 
O=C(O)c1ccc(N2CCCC2)cc1F [CA064] | -1.15% | -11.3% | 
CC1CC1C(=O)N1CCCCC1C(=O)O (centres unmarked) [CA145] | 4.43% | 1.71% | 
Cc1nc(-c2ncccn2)sc1C(=O)O [CA159] | 2.85% | 8.46% | 
O=C(O)Cc1csc(-c2cccs2)n1 [CA189] | 4.78% | -9.04% | 
O=C(O)c1ccc(OCc2ccncc2)cc1 [CA105] | 12.9% | 11.9% | 
COc1ccc(N2CCN(C(C)C(=O)O)CC2)cc1 (centres unmarked) [CA130] | 7.09% | 7.3% | 
O=C(O)c1csc(-c2cnc[nH]2)n1 [CA238] | 6.66% | -0.05% | 
O=C(O)Cc1ccccc1[N+](=O)[O-] [CA013] | 7.76% | -7.61% | 

SMILES | inhibition at 1.25 µM [1] | inhibition at 1.25 µM [2] | inhibition of mUSP18 by individual CA's and coupling reagents
Cc1cc(OCC(=O)O)ccc1C(C)C [CA006] | -6.56% | -10.7% | 
O=C(O)c1cc(-n2ccnc2)ccn1 [CA106] | 13.6% | 10.8% | 
O=C(O)c1nc(N2CCCC2)ncc1Cl [CA090] | 23.1% | 14.2% | 
O=C(O)CCc1ccccc1 [CA072] | -7.29% | -13.3% | 
O=C(O)C1CC(=O)N(CCOc2ccccc2Cl)C1 (centres unmarked) [CA185] | 3.64% | 9.2% | 
Cn1cc(S(=O)(=O)NCc2ccco2)cc1C(=O)O [CA157] | 2.07% | 6.58% | 
Cc1ccc(N2CCCC(C(=O)O)C2)nc1 (centres unmarked) [CA254] | -2.11% | 7.64% | 
O=C(O)C1CCN(C(=O)CCOc2ccccc2)CC1 [CA197] | 4.78% | 1.19% | 
Cc1nc(-c2cnn(C)c2)sc1C(=O)O [CA196] | 6.54% | 3.44% | 
O=C(O)c1cc(-c2ccc(Cl)s2)[nH]n1 [CA148] | 7.78% | 9.65% | 
O=C(O)c1cc(C2CCCCC2)[nH]n1 [CA248] | 1.65% | 7.2% | 
O=C(O)c1ccc(CN2CCOCC2)cc1 [CA187] | 12.1% | -2.66% | 
COc1ccccc1-c1nnc(CC(=O)O)o1 [CA162] | 23.2% | 4.62% | 
Cc1cc(C)c(C(=O)O)c(OCC2CCCCC2)n1 [CA131] | 9.41% | 31.3% | 
O=C(O)CCCCBr [CA023] | -5.49% | -14.3% | 
O=C(O)c1cccc(-c2ncn[nH]2)c1 [CA215] | 8.13% | 1.55% | 
CC(=O)N1CCC(C(=O)O)CC1 [CA088] | -2.57% | -12.6% | 
O=C(O)Cc1ccc(NS(=O)(=O)c2c(Cl)cccc2Cl)cc1 [CA141] | 9.99% | 2.69% | 

The next lines start with the values.

inhibition at 1.25 µM [1] | inhibition at 1.25 µM [2] | inhibition of mUSP18 by individual CA's and coupling reagents | SMILES
-5.3% | -2.79% |  | O=C(O)Cc1ccc(OCc2ccccn2)cc1 [CA435]
2.77% | -1.69% |  | O=C(O)c1nc(N2CCOCC2)ncc1Cl [CA458]
0.78% | 1.18% |  | O=C(O)CC1CCN(c2ccc(C(F)(F)F)cn2)CC1 [CA374]
0.71% | 2.58% |  | CCn1nccc1-c1cc(C(=O)O)no1 [CA368]
0.53% | 98.1% | could inhibit mUSP18 | O=C(O)c1cccn1-c1c(Cl)cccc1Cl [CA302]
9.79% | 2.89% |  | O=C(O)C1Cc2ccccc21 (centres unmarked) [CA263]
8.72% | 3.94% |  | Cn1nc(-c2cccnc2)cc1C(=O)O [CA268]
-4.51% | 6.42% |  | Cn1cc(-c2ccc(C(=O)O)o2)cn1 [CA304]
14.4% | 1.26% |  | O=C(O)c1csc(C2CCCCC2)n1 [CA353]
-0.53% | -3.12% |  | O=C(O)C1CCCN1C(=O)c1ccncc1 (centres unmarked) [CA290]
-1.54% | -0.28% |  | CC(C)c1cc(C(=O)O)n(-c2ccccc2)n1 [CA460]
9.75% | 5.3% |  | CN(Cc1ccccc1)S(=O)(=O)c1ccc(C(=O)O)cc1 [CA267]
-4.79% | -0.58% |  | O=C(O)Cc1csc(NS(=O)(=O)c2ccccc2)n1 [CA421]
3.33% | -0.36% |  | COc1ccc(CC(=O)O)cc1S(=O)(=O)N1CCOCC1 [CA340]
-2.54% | -7.62% |  | CN(CC1CC1)c1ccc(C(F)(F)F)cc1C(=O)O [CA386]
2% | 4.68% |  | O=C(O)CC1=NN(c2cccc(Cl)c2)C(=O)C1 [CA345]
8.25% | 12.6% |  | Cc1oc(-c2cccs2)nc1C(=O)O [CA346]
71.2% | 56.5% | could inhibit mUSP18 | O=C(O)c1sccc1-n1cccc1 [CA392]

inhibition at 1.25 µM [1] | inhibition at 1.25 µM [2] | inhibition of mUSP18 by individual CA's and coupling reagents | SMILES
8.22% | 3.17% |  | O=C(O)C(F)(F)n1cc(-c2ccccc2)nn1 [CA262]
13.5% | 8.07% |  | Cc1cc(C(=O)N(C)c2ccccc2C(=O)O)sc1C [CA343]
5.31% | 1.01% |  | Cc1onc(C(=O)O)c1CN1CCOCC1 [CA364]
1.59% | -10.4% |  | Cc1nc(-c2ccsc2)ccc1C(=O)O [CA378]
-5.61% | 1.41% |  | O=C(O)c1cnn(-c2ccc(C(F)(F)F)cc2)c1 [CA396]
-7.28% | 2.15% |  | Cc1n[nH]c(C)c1Cc1ccc(C(=O)O)o1 [CA445]
-7.23% | -1.62% |  | Cn1cc(-c2cc(C(=O)O)n[nH]2)cn1 [CA419]
-0.2% | -6.22% |  | COc1ccccc1N1CC(C(=O)O)CCC1=O (centres unmarked) [CA409]
-1.28% | -6.37% |  | Cn1nc(C2CCC2)cc1C(=O)O [CA432]
2.56% | -3.79% |  | O=C(CC1(C(=O)O)CCCC1)N1CCOCC1 [CA332]
-3.25% | -8.03% |  | O=C(O)c1csc(CCc2ccccc2)n1 [CA382]
-10.2% | -2.23% |  | Cc1c[nH]c(=O)n1-c1cccc(C(=O)O)c1 [CA397]
-4.17% | 7% |  | CC1CCCCN1S(=O)(=O)c1ccccc1C(=O)O (centres unmarked) [CA468]
-0.68% | -7.73% |  | O=C(O)C(OC1CCOCC1)c1ccccc1 (centres unmarked) [CA405]
-2.07% | -8.76% |  | O=C(O)C1CC(=O)N(OCc2ccccc2)C1 (centres unmarked) [CA452]
5.18% | 5.09% |  | CN1CCN(C(=O)[1C@@H]2[1C@@H](C(=O)O)C2(C)C)CC1 [CA273]
14.4% | 1% |  | CCOc1oc(-c2ccco2)nc1C(=O)O [CA329]
-10.1% | -0.24% |  | O=C(O)c1ccc(OCc2cccnc2)cc1 [CA399]
